Drawing on ChEMBL document CHEMBL1148347, “Identification of non-phosphate-containing small molecular weight inhibitors of the tyrosine kinase p56 Lck SH2 domain via in silico screening against the pY + 3 binding site” (J Med Chem, 2004), this text covers inhibition and Kd for eleven compounds.

pKd: −log10 of the molar value. Active and inactive are the calls of the source. The calls are words filed in the database; no cut-off is given here.

The species entered for one assay is Mus musculus. Description: Inhibition of [3H]-thymidine incorporation into murine mixed lymphocyte culture at 100 uM (Significant anti-proliferative activity). The assay is classed as functional.
Assay [1] concerns the target Tyrosine-protein kinase Lck (Homo sapiens, UniProt P06239). Description: Dissociation constant for p56 Lck tyrosine kinase SH2 domain by fluorescence titration.

Chain of Tyrosine-protein kinase Lck (P06239 whole entry, the tested form may be a part): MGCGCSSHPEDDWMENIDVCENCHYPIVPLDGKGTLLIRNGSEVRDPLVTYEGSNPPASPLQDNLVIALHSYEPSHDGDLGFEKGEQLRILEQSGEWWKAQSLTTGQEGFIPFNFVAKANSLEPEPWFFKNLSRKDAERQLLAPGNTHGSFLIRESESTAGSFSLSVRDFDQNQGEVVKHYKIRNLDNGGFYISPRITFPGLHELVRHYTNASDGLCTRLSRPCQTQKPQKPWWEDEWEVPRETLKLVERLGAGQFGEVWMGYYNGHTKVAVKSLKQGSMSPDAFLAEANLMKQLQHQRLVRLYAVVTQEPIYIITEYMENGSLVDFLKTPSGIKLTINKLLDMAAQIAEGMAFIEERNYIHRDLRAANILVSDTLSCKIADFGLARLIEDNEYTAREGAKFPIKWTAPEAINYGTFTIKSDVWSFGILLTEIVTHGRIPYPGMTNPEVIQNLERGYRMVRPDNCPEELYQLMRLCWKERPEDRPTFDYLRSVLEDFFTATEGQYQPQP

For the compound `Cc1ccc(C(=O)O)cc1NC(=O)CCC(=O)O`, the inhibition entry in the assay listed under Mus musculus was “Active”.
The same measure, in the same setting: as for `O=C(O)CSc1cccnc1Sc1ccc(Cl)cc1`, the entry is “Active”; as for `COc1ccc(-n2c(SCC(=O)Nc3ccccc3OC)nc3nnc(C)c-3c2N)cc1`, “Active”; as for `O=C(O)CC1SC(N/N=C2/CCCc3ccccc32)=NC1=O` (configuration not stated), “Active”.
Same read-out and setting: as for `COc1ccc([N+](=O)[O-])cc1CSc1nnc(N)s1`, the entry is “Active”; as for `O=C(O)c1cccc(/N=C2\C(Cl)=C(O)OC2OC(=O)c2ccccc2)c1` (configuration not stated), “Active”; as for `O=C(O)c1ccccc1SCc1cc(O)nc(O)n1`, “Active”.
Same read-out and setting: as for `Cc1ccc(NC(=O)c2cccc(NC(=O)c3ccccc3C(=O)O)c2)cc1C`, the entry is “Active”; as for `COc1ccc(OC)c(NC(=O)CCNC(=O)Cn2cnc3ccccc3c2=O)c1`, “Active”.
Consider `Cc1ccc(NC(=O)CN2C(=O)S/C(=C\c3ccc(-c4cc(C(=O)O)ccc4C)o3)C2=O)cc1`, for which, in the assay filed under Mus musculus, the inhibition entry was “Active”. Besides, the pKd in assay [1] is 5.22.
With `O=C(NCc1cccs1)c1cccnc1SCc1cccc(Br)c1`, in the assay listed under Mus musculus, the inhibition result was “Active”.
